Data published in patent US11028072B2, “2,4-diamino-6-ethylpyrimidine derivatives with antimalarial activities against Plasmodium falciparum” (National Science and Technology Development Agency, priority 2015, dated 2021).
Read-outs that look alike come from different tables or passages of the source.

Tests used:
in vitro = conditions: African green monkey
Excerpt: (§1) In Vitro Antimalarial Activites Against P. falciparum and Cytotoxicity Towards Mammalian Cells (Vero Cells)

[1] = biological target: quadruple mutant N51I + C59R + S108N + I164L (QM) pfDHFR (Plasmodium falciparum, UniProt P13922, I164L/N51I); test: Inhibition of quadruple mutant pfDHFR (Ki); format: biochemical
Chain of quadruple mutant N51I + C59R + S108N + I164L (QM) pfDHFR (P13922 whole entry N51I/I164L): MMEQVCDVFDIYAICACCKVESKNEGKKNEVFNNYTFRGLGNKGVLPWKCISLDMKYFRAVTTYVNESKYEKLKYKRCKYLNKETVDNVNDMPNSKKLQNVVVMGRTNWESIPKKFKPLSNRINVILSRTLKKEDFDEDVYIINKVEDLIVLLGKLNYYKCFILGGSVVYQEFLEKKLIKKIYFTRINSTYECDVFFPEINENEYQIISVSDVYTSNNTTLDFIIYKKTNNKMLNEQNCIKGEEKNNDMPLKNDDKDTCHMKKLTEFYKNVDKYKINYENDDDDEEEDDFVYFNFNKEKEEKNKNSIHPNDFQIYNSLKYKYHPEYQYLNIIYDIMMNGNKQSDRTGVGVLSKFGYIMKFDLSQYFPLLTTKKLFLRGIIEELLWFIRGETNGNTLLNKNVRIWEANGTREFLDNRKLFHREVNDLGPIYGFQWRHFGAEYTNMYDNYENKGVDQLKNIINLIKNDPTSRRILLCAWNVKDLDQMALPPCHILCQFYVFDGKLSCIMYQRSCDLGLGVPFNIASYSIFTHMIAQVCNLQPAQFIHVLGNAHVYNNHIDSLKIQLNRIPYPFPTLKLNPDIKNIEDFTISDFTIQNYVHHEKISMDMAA
Description: (§2) The synthesized 2,4-diamino-6-ethylpyrimdine derivatives as the hydrochloride salts were tested for the activities against Plasmodium falciparum (P. falciparum) according to the standard methods. These include the inhibition of dihydrofolate reductase (DHFR) enzymes of P. falciparum including, wild type (WT) and quadruple mutants (N51IC59RS108NI164L) (QM). The inhibition was expressed as inhibition constants (Ki) in nano molar (nM).

[2] = system: P. falciparum TM4/8.2 (wild type); test: microbe, parasite or virus in culture; format: cell-based, Plasmodium falciparum; conditions: Plasmodium falciparum, read-out: IC50 P. falciparum TM4/8.2 (WT)
Excerpt: as §1

[3] = system: P. falciparum V1/S (N51I + C59R + S108 + I164L); test: microbe, parasite or virus in culture; format: cell-based, Plasmodium falciparum; conditions: Plasmodium falciparum, read-out: IC50 P. falciparum V1/S
Excerpt: as §1

wild type (WT) pfDHFR = wild type (WT) pfDHFR (Plasmodium falciparum, UniProt P13922, N108S/R59C); test: Inhibition of wild type pfDHFR (Ki); format: biochemical
Chain of wild type (WT) pfDHFR (P13922 whole entry R59C/N108S): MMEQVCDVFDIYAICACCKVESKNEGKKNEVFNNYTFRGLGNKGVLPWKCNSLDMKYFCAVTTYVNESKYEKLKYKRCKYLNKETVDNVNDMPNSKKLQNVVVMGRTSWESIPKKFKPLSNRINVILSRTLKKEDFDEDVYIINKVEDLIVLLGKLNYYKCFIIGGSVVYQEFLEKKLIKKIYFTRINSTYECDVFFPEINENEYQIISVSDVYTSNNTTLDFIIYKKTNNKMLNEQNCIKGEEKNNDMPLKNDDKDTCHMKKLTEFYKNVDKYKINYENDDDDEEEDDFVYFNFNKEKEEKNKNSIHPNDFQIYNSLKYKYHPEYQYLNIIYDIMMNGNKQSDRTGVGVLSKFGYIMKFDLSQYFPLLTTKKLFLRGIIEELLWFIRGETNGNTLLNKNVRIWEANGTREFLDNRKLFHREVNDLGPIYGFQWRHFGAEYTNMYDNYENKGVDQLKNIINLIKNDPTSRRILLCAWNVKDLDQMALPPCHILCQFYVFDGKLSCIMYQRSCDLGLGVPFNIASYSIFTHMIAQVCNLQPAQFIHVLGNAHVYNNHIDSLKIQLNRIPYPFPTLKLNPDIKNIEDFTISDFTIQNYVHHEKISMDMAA
Description: as §2

[4] = biological target: T1, Human dihydrofolate reductase (hDHFR) (Homo sapiens, UniProt P00374); test: Inhibition of human dihydrofolate reductase (Ki); format: biochemical; conditions: human DHFR; hydrochloride salts
T1 sequence (P00374 1-187): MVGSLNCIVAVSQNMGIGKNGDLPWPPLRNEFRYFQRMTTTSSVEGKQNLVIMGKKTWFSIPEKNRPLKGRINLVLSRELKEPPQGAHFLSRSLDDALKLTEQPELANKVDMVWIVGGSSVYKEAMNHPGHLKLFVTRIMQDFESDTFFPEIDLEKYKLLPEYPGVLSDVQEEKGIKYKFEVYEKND

[5] = in vitro, wild-type strain TM4/8.2
[6] = in vitro, quadruple mutant strain V1/S

SMILES | IC50 (in vitro) | Ki [1] | IC50 [2, 5] | IC50 [3, 6] | Ki (wild type (WT) pfDHFR) | Ki [4] | Ki hDHFR [4] | IC50 [2] | IC50 [3]
CCc1nc(N)nc(N)c1OCCc1cn(-c2ccc(C(=O)OC)cc2)nn1 [Compound 21] | > 25000 nM | 8.56 ± 1.46 nM | 490 ± 70 nM | > 25000 nM | 0.48 ± 0.1 nM | 1060 ± 89.5 nM |  |  | 
CCc1nc(N)nc(N)c1OCc1csc(-c2ccc(C)cc2)n1 [Compound 67] | 28900 ± 5740 nM | 27.3 ± 1.45 nM | 1020 ± 530 nM | 19000 ± 6700 nM | 0.81 ± 0.05 nM | > 100000 nM |  |  | 
CCc1nc(N)nc(N)c1OCc1coc(-c2ccccc2)n1 [Compound 50] | > 50000 nM | 55.6 ± 8.79 nM | 2250 ± 710 nM | 13700 ± 4080 nM | 1.33 ± 0.07 nM | 292 ± 22.2 nM |  |  | 
CCc1nc(N)nc(N)c1-c1cn(-c2ccccc2)nn1 [Compound 1] | > 50000 nM | 6020 ± 772 nM | > 50000 nM | > 50000 nM | 49.7 ± 4.18 nM |  | High |  | 
CCc1nc(N)nc(N)c1-c1cn(Cc2ccc(C(=O)OC)cc2)nn1 [Compound 4] | > 25000 nM | 5.2 ± 0.62 nM |  |  | 3.3 ± 0.36 nM | 555 ± 20.1 nM |  | 5530 ± 840 nM | > 25000 nM
CCc1nc(N)nc(N)c1OCc1csc(-c2cccc(C)c2)n1 [Compound 61] | 31300 ± 7750 nM | 37.7 ± 3.04 nM | 840 ± 100 nM | 18000 ± 7770 nM | 0.34 ± 0.05 nM | 131.5 ± 0.88 nM |  |  | 
CCc1nc(N)nc(N)c1OCCCc1cn(Cc2ccc(C(=O)O)cc2)nn1 [Compound 32] | > 50000 nM | 4.72 ± 0.77 nM | 87 ± 30 nM | 3750 ± 430 nM | 0.36 ± 0.02 nM | 54.3 ± 1.05 nM |  |  | 
CCc1nc(N)nc(N)c1OCc1cc(-c2ccc(OC)cc2)no1 [Compound 42] | > 25000 nM | 64.4 ± 7.59 nM | 1190 ± 360 nM | > 25000 nM | 1.15 ± 0.18 nM | 1660 ± 76.7 nM |  |  | 
CCc1nc(N)nc(N)c1-c1cn(CCCOc2ccc(C(=O)OC)cc2)nn1 [Compound 12] | 47600 ± 6270 nM | 34 ± 5.51 nM |  |  | 0.82 ± 0.06 nM | 875 ± 27.9 nM |  | 970 ± 400 nM | > 50000 nM
CCc1nc(N)nc(N)c1OCc1cn(Cc2ccc(C(=O)O)cc2)nn1 [Compound 29] | > 25000 nM | 477 ± 32.3 nM | > 25000 nM | > 25000 nM | 14.5 ± 1.62 nM |  | High |  | 
CCc1nc(N)nc(N)c1OCc1coc(-c2ccc(OCC(=O)OCc3ccccc3)cc2)n1 [Compound 56] | > 100000 nM | 46.7 ± 4.68 nM | 580 ± 220 nM | 23300 ± 2470 nM | 0.81 ± 0.07 nM | > 100000 nM |  |  | 
CCc1nc(N)nc(N)c1OCc1coc(-c2cccc([N+](=O)[O-])c2)n1 [Compound 52] | > 50000 nM | 93.2 ± 25 nM | 2660 ± 310 nM | 15100 ± 1490 nM | 2.63 ± 0.26 nM | > 100000 nM |  |  | 
CCc1nc(N)nc(N)c1OCCc1cn(-c2cccc(C(=O)O)c2)nn1 [Compound 20] | > 25000 nM | 1.73 ± 0.18 nM | 670 ± 340 nM | 1740 ± 510 nM | 0.39 ± 0.06 nM | 80.2 ± 3.28 nM |  |  | 
CCc1nc(N)nc(N)c1OCc1cn(-c2ccccc2)nn1 [Compound 13] | > 25000 nM | 377 ± 20.5 nM | 5730 ± 350 nM | > 25000 nM | 3.27 ± 0.28 nM |  | High |  | 
CCc1nc(N)nc(N)c1OCCCc1cc(-c2cccc(C#N)c2)no1 [Compound 47] | 560 nM | 1.02 ± 0.07 nM |  |  | 0.27 ± 0.03 nM | 21.4 ± 0.91 nM |  | 40 ± 7 nM | 5510 ± 470 nM
CCc1nc(N)nc(N)c1OCc1cc(-c2cccc([N+](=O)[O-])c2)no1 [Compound 39] | > 50000 nM | 49 ± 6.73 nM | 1160 ± 550 nM | 9080 ± 1050 nM | 1.33 ± 0.17 nM | > 100000 nM |  |  | 
CCc1nc(N)nc(N)c1OCc1csc(-c2ccc(C(=O)O)cc2)n1 [Compound 75] | > 50000 nM | 39.2 ± 3.82 nM | 2650 ± 430 nM | > 50000 nM | 0.69 ± 0.12 nM | 301 ± 24.4 nM |  |  | 
CCc1nc(N)nc(N)c1OCCCc1cn(-c2ccc(C(=O)OC)cc2)nn1 [Compound 24] | > 2000 nM | 1.9 ± 0.08 nM |  |  | 0.15 ± 0.02 nM | 19 ± 1.92 nM |  | 55 ± 6 nM | > 2000 nM
CCc1nc(N)nc(N)c1OCc1cc(-c2cccc(C(F)(F)F)c2)no1 [Compound 37] | 37100 ± 1810 nM | 106 ± 17.3 nM | 3260 ± 810 nM | 20200 ± 1370 nM | 2.12 ± 0.18 nM | > 100000 nM |  |  | 

SMILES | IC50 (in vitro) | Ki [1] | IC50 [2, 5] | IC50 [3, 6] | Ki (wild type (WT) pfDHFR) | Ki [4] | Ki hDHFR [4] | IC50 [2] | IC50 [3]
CCc1nc(N)nc(N)c1OCc1csc(-c2ccccc2)n1 [Compound 60] | > 50000 nM | 38.8 ± 5.58 nM | 1200 ± 380 nM | 20800 ± 1860 nM | 1.02 ± 0.14 nM | 276 ± 16.7 nM |  |  | 
CCc1nc(N)nc(N)c1OCc1cn(Cc2cccc(C(=O)O)c2)nn1 [Compound 26] | > 25000 nM | 388 ± 26.2 nM | > 25000 nM | > 25000 nM | 19.5 ± 1.06 nM |  | High |  | 
CCc1nc(N)nc(N)c1OCc1cc(-c2ccccc2)no1 [Compound 33] | > 25000 nM | 38.1 ± 6.27 nM | 670 ± 130 nM | 15700 ± 4480 nM | 0.51 ± 0.08 nM | 1480 ± 68.9 nM |  |  | 
CCc1nc(N)nc(N)c1OCc1cn(-c2ccc(C(=O)OC)cc2)nn1 [Compound 18] | > 50000 nM | 833 ± 45 nM | 10500 ± 3100 nM | 13600 ± 3220 nM | 6.54 ± 1.25 nM |  | High |  | 
CCc1nc(N)nc(N)c1OCc1cc(-c2cccc(OC)c2)no1 [Compound 38] | > 25000 nM | 22.8 ± 3.09 nM | 570 ± 190 nM | > 25000 nM | 0.55 ± 0.1 nM | 1080 ± 31 nM |  |  | 
CCc1nc(N)nc(N)c1OCCc1coc(-c2ccccc2)n1 [Compound 58] | 5590 ± 1840 nM | 4.63 ± 0.22 nM |  |  | 0.55 ± 0.02 nM | 20.4 ± 2.1 nM |  | 48 ± 21 nM | 53100 ± 15200 nM
CCc1nc(N)nc(N)c1OCc1cc(-c2ccc(Cl)cc2)no1 [Compound 35] | > 25000 nM | 65 ± 11.9 nM |  |  | 0.95 ± 0.02 nM | 1170 ± 130 nM |  | 2500 ± 340 nM | 20900 ± 4080 nM
CCc1nc(N)nc(N)c1OCc1csc(-c2ccc(Cl)cc2)n1 [Compound 70] | 63500 ± 17600 nM | 30.2 ± 1.59 nM | 1180 ± 30 nM | 24300 ± 9370 nM | 0.74 ± 0.09 nM | 286 ± 47.1 nM |  |  | 
CCc1nc(N)nc(N)c1OCc1csc(-c2ccc(Br)cc2)n1 [Compound 71] | > 25000 nM | 24.3 ± 1.75 nM | 1090 ± 440 nM | 18700 ± 1900 nM | 0.76 ± 0.15 nM | 203 ± 27.2 nM |  |  | 
CCc1nc(N)nc(N)c1-c1cn(Cc2ccc(C(=O)O)cc2)nn1 [Compound 5] | > 10000 nM | 7.61 ± 0.66 nM | 7950 ± 1380 nM | > 10000 nM | 6.31 ± 0.4 nM | 196 ± 20.7 nM |  |  | 
CCc1nc(N)nc(N)c1OCCCc1cn(-c2ccc(C(=O)O)cc2)nn1 [Compound 25] | 6400 ± 1080 nM | 3.52 ± 0.73 nM |  |  | 0.35 ± 0.04 nM | 44.8 ± 1.92 nM |  | 36 ± 10 nM | 4650 ± 120 nM
CCc1nc(N)nc(N)c1OCc1cc(-c2ccc([N+](=O)[O-])cc2)no1 [Compound 43] | > 50000 nM | 306 ± 36.5 nM | 33200 ± 14200 nM | > 50000 nM | 4.02 ± 0.57 nM | > 100000 nM |  |  | 
CCc1nc(N)nc(N)c1OCc1csc(-c2ccc(OC)cc2)n1 [Compound 68] | 43500 ± 13400 nM | 16 ± 1.27 nM |  |  | 0.46 ± 0.06 nM | 186 ± 4.66 nM |  | 450 ± 90 nM | 12900 ± 5710 nM
CCc1nc(N)nc(N)c1OCc1cn(Cc2cc(F)c(O)c(F)c2)nn1 [Compound 27] | > 50000 nM | 285 ± 14.1 nM | 16100 ± 6020 nM | > 50000 nM | 9.41 ± 0.85 nM |  | High |  | 
CCc1nc(N)nc(N)c1-c1cn(CCCOc2ccc(Cl)cc2)nn1 [Compound 11] | 48700 ± 13600 nM | 32.1 ± 8.31 nM | 2420 ± 550 nM | > 50000 nM | 1.12 ± 0.08 nM | 1120 ± 91.4 nM |  |  | 
CCc1nc(N)nc(N)c1OCc1cc(-c2ccc(F)cc2)no1 [Compound 34] | > 25000 nM | 77.6 ± 14.8 nM |  |  | 1.01 ± 0.05 nM | 1080 ± 93.7 nM |  | 1600 ± 790 nM | 18900 ± 4440 nM
CCc1nc(N)nc(N)c1OCc1csc(-c2cccc(OCC(=O)O)c2)n1 [Compound 64] | > 50000 nM | 41.3 ± 7.41 nM | 550 ± 120 nM | > 50000 nM | 0.6 ± 0.04 nM | 184 ± 21.4 nM |  |  | 
CCc1nc(N)nc(N)c1OCCCc1cn(-c2cccc(C(=O)O)c2)nn1 [Compound 23] | > 25000 nM | 0.42 ± 0.06 nM | 6.4 ± 0.5 nM | 320 ± 120 nM | 0.25 ± 0.02 nM | 22.7 ± 2.76 nM |  |  | 
